Values joined by “and” are separate entries in the source; they are usually repeats but may differ in a detail not shown here. Identical values can stand only once.
Biological target: Voltage-gated inwardly rectifying potassium channel KCNH2 (Homo sapiens, UniProt Q12809)
Assay: Determination of a Possible Activity on hERG: The hERG (human ether-A-go-go-related gene) channel corresponds to an important anti-target for potential new drugs since its inhibition may lead to sudden death. In order to establish whether the compounds of the present invention act on hERG, the following experiment was carried out.The in vitro effects of the compounds indicated in Table 5 on the …
Format: cell-based

Sequence of Voltage-gated inwardly rectifying potassium channel KCNH2 (Q12809 whole entry): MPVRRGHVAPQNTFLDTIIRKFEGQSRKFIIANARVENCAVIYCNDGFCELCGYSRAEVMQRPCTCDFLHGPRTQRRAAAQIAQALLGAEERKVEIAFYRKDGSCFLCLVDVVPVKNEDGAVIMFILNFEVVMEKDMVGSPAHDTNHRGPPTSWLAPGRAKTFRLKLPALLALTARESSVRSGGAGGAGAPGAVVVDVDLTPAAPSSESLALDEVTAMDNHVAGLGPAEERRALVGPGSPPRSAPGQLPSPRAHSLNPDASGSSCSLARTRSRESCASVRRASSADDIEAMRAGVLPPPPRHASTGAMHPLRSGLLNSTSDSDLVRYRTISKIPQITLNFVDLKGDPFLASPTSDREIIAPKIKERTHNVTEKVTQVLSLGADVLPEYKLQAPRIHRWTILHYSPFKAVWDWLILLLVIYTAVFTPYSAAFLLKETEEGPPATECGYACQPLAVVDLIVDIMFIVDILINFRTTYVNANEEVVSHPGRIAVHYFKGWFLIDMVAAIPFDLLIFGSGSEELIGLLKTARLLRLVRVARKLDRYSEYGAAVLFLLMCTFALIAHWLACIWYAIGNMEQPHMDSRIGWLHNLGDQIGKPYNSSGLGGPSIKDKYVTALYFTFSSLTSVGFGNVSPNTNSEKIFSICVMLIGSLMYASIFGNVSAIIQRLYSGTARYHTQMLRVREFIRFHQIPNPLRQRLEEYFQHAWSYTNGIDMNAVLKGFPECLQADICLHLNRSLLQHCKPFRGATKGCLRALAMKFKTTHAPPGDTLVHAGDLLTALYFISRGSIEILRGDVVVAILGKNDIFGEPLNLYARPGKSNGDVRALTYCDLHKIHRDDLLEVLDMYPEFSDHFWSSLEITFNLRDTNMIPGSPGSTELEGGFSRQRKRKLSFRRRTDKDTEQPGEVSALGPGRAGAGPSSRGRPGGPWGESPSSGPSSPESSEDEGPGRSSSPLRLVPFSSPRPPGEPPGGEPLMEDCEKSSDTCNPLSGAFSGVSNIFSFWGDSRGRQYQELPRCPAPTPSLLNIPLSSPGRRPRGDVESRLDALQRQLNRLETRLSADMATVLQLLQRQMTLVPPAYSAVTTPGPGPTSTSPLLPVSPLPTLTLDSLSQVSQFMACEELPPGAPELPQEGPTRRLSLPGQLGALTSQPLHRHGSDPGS

SMILES	IC50
CCn1c(N2CCNC(=O)C2)nc2c([N+](=O)[O-])c(Br)c(Br)cc21	1.78 µM and 11.9 µM
CCn1c(N2CCNCC2)nc2c([N+](=O)[O-])c(Br)c(Br)cc21	16.9 µM

Reference: ChEMBL document CHEMBL5726153, “Benzimidazole derivatives as kinase inhibitors” (2019)
